In US10039812B2, “Therapeutic for treating clostridium difficile infection” (priority 2012, dated 2018):
Read-outs that look alike come from different tables or passages of the source. Where no end group is shown, it is not given here.

Assays:
[1] = tested on: C. difficile strain 630Δerm; assay type: cell-based, Clostridium difficile; details: for Effect on biofilm (disassembly): 3 μM D-tyrosine, 2 mM D-methionine, 5 mM D-tryptophan, 8.5 mM D-leucine, mixture 2.5 nM each (FIG. 12)
B. subtilis biofilms = details: cited from earlier work
[2] = tested on: C. difficile strain R20291; assay type: cell-based, Clostridium difficile
S. aureus = details: cited from earlier work; for Biofilm disassembly: 10 μM, 100 μM and 500 μM
[3] = tested on: C. difficile 630Δerm biofilm; test: DNase, RNase and proteinase K digests of biofilm (floc) in liquid culture; details: 15 minute treatment, room temperature
[4] = tested on: C. difficile strain 630Δerm; test: Inhibition of biofilm formation in TC flasks
[5] = tested on: C. difficile R20291 biofilm; test: DNase, RNase and proteinase K digests of biofilm in liquid culture; details: 15 minutes
[6] = tested on: 630Δerm C. difficile biofilms; test: DNase treatment of biofilms visualised by confocal microscopy; assay type: cell-based, Clostridium difficile; details: for Degradation of the biofilm (confocal microscopy): 15 minutes
Method: The untreated controls were incubated for 15 minutes with 0.15 M NaCl and washed with 1×PBS. These coverslips were mounted onto glass slides, a coverslip was applied over a 50% glycerol mounting media and these were sealed with clear nail varnish. The slides were visualised under oil immersion using a ×40 objective using a laser confocal microscope (Zeiss microscope).

[7] = 3 μM D-tyrosine, 2 mM D-methionine, 5 mM D-tryptophan, 8.5 mM D-leucine, mixture 2.5 nM each
[8] = 10 μg/ml added prior to inoculation, 6 day incubation, static and shaking

With CC(C)C[C@@H](N)C(=O)O [D-leucine] the “Effect on biofilm formation” value [1] was “ineffective”, the “Growth of the bacteria” value [1] was “inhibited” and the “Effect on biofilm (disassembly)” value [1] was “no significant effect”. For the same compound, the Biofilm disassembly (B. subtilis biofilms; [7]) was “disassembled”, the “Effect on biofilm (disassembly)” value [2] was “no significant effect” and the “Effect on biofilm formation” value [2] was “ineffective”. For the same compound, the “Growth of the bacteria” value [2] was “reduced”.
In the case of CSCC[C@@H](N)C(=O)O [D-methionine], the “Effect on biofilm (disassembly)” value [1] is listed as “no significant effect”, the Biofilm disassembly (B. subtilis biofilms; [7]) is listed as “disassembled” and the “Effect on biofilm (disassembly)” value [2] is listed as “no significant effect”.
For N[C@H](Cc1ccccc1)C(=O)O [D-phenylalanine], the Biofilm disassembly (S. aureus) is listed as “disassembled”.
For O=C(O)[C@H]1CCCN1 [D-proline], the Biofilm disassembly (S. aureus) is listed as “disassembled”.
In the case of N[C@H](Cc1c[nH]c2ccccc12)C(=O)O [D-tryptophan], the Biofilm formation [1] is reported as “increased the biofilm formation”, the Disruption of biofilms [1] is reported as “not disrupted” and the “Effect on biofilm (disassembly)” value [1] is reported as “no significant effect”. For the same compound, the Biofilm disassembly (B. subtilis biofilms; [7]) was “disassembled”, the Biofilm formation [2] was “increased the biofilm formation” and the Disruption of biofilms [2] was “not disrupted”. For the same compound, the “Effect on biofilm (disassembly)” value [2] was “no significant effect”.
In the case of N[C@H](Cc1ccc(O)cc1)C(=O)O [D-tyrosine], the “Effect on biofilm (disassembly)” value [1] is given as “no significant effect”, the Biofilm disassembly (S. aureus) is given as “disassembled” and the Biofilm disassembly (B. subtilis biofilms; [7]) is given as “disassembled”. The “Effect on biofilm (disassembly)” value [2] was “no significant effect”.
In the case of NCCCNCCCN [norspermidine], the Biofilm level [1] is reported as “significantly reduced”, the “Disassembly of biofilm performed in tissue culture flasks” value [1] is reported as “not disrupted” and the Disassembly of biofilms [1] is reported as “does not disassemble biofilms”. For the same compound, the Viability [1] was “slight decrease in viability”, the Biofilm disassembly (B. subtilis biofilms; norspermidine at 100, 50 and 25 μM) was “disassemble biofilms” and the “Biofilm formation on addition to biofilm cultures” value [2] was “enhances the biofilm formation”. For the same compound, the Disassembly of biofilms [2] was “does not disassemble biofilms”.
For DNase, the “Degradation of the biofilm (floc produced in static culture)” value ([3]; 100 ug/ml) was “Degradation of the biofilm was observed”, the “Degradation of the biofilm (floc produced in static culture)” value ([3]; 1 mg/ml) was “Degradation of the biofilm was observed” and the “Bacterial growth (turbidity of media)” value [4, 8] was “turbid, indicating bacterial growth”. For the same compound, the “Biofilm formation (flocs or aggregates)” value [4, 8] was “no flocs or aggregates were observed”, the “Formation of biofilm in liquid media” value ([4]; 10 mg/ml in the growth media, incubated statically for six days (FIG. 9)) was “inhibits the formation of biofilm” and the “Degradation of the biofilm” value ([5]; 1 mg/ml) was “degradation of the biofilm observed”. For the same compound, the “Degradation of the biofilm” value [5] was “degradation of the biofilm observed”, the “Degradation of the biofilm (confocal microscopy)” value ([6]; 1 ug DNase) was “incomplete degradation” and the “Degradation of the biofilm (confocal microscopy)” value ([6]; 10 ug DNase) was “incomplete degradation”. For the same compound, the “Degradation of the biofilms (confocal microscopy)” value ([6]; DNase for 15 minutes, BHIS and YP media, compared to untreated controls) was “biofilms were absent”.
In the case of “Human beta-defensin 3: cationic peptide shown to inhibit biofilm formation in S. aureus (GIINTLQKYYCRVRGGRCAVLSCLPKEEQIGKCSTRGRKCCRRKK; ends and bridges not checked; cysteine pairing not given here; UniProt P81534 23-67, looked up)”, the “Inhibition of biofilm formation” value (S. aureus) is given as “inhibit biofilm formation”.
